# Like-named read-outs stand apart in the source and are kept apart here. Positions of bridges follow the written chain, without caps; N, C: chain ends. Non-standard residues stand in square brackets, D forms with d. Residues, ends and D or L forms follow the SMILES beside them. 2Nal = N[C@@H](Cc1ccc2ccccc2c1)C(=O)O; d2Nal = N[C@H](Cc1ccc2ccccc2c1)C(=O)O; Cit = NC(=O)NCCC[C@H](N)C(=O)O
# Legend:
# CXCR4 [1] = biological target: T1, CXCR4 (Homo sapiens, UniProt P61073); test: SDF-1α-induced cell migration assay in SupT1 cells (transwell); format: cell-based; set-up: host or cells: SupT1 cells; details: 2 nM SDF-1α, 30 min pre-incubation, 3 h migration; for inhibition at 40 µM: SUP-T1, at 40 μM
# Description: (§1) Figure 2 The inhibitory effect of the antagonists on SDF-1α-induced cell chemotaxis and calcium mobilization in SupT1 cells The antagonists and concentrations used were labeled in each lane. (A) The inhibition of cell migration by the noted antagonists. SupT1 cells pre-treated with or without CXCR4 antagonists were seeded in the upper well and cell migrated by 2 nM SDF-1α. Migrated cells without SDF-1α were used as a negative (0%) and migrated cell induced by SDF-1α as a positive control (100%). […] SupT1 cells were treated with or without CXCR4 antagonists and activated by 50 nM SDF-1α. To directly compare the inhibitory effect of the antagonists on calcium mobilization, the vehicle background and baseline were removed using GraphPad and Origin. The data were averages of at least three independent experiments.
# SupT1 cells (2 × 10^6 cells per well in 75 μl) were collected and washed using assay buffer (RPMI 1640 supplemented with 0.5% BSA) and incubated with various concentrations of tested compounds for 30 min in the upper well of the transwell-96 well plates with 5.0 µm pore polycarbonate membrane insert (Corning, U.S.A.). Then, 200 μl assay buffer containing 2 nM SDF-1α was added to the lower well and cells were allowed to migrate for 3 h. Migrated cells were measured using celltiter-96 reagent.
# CXCR4 [2] = biological target: T1, CXCR4; test: Competitive CXCR4 binding assay (12G5 antibody probe), wild-type CXCR4 transfected CHO cells; set-up: expressed in transfected cells
# Description: The CXCR4-specific antibody, 12G5 was used as a probe for the competitive CXCR4 binding assay to evaluate the binding activity of CXCR4 antagonists.
# Figure 1 Competitive CXCR4 binding curves of eleven CXCR4 antagonists The CXCR4 transfected CHO cells were incubated with different concentrations of antagonists and 250 ng/ml 12G5 antibody. The CXCR4-binding 12G5 antibody was recognized by FITC-conjugated anti-IgG second antibody. The cells treated with only second antibody were used as a negative control (0%) while cells treated with both 12G5 antibody and second antibody were used as a positive control (100%). Cells treated with CXCR4 antagonists were calculated in percentage relative to the positive and negative controls. The data were averages of at least three independent experiments and shown as mean ± standard error of the mean (S.E.M.).
# (§2) The procedure for the CXCR4 competitive binding experiments was published previously. Briefly, CXCR4 antibody 12G5 (250 ng/ml) was incubated with 5 × 10^5 cells and varying concentrations of unlabeled compounds in a final volume of 100 μl of assay buffer (PBS with 0.5% BSA and 0.05% NaN3) in 96-well plates for 40 min on ice, after being washed with assay buffer once. The cells were incubated with FITC-conjugated second antibody IgG for 30 min on ice, then washed with assay buffer three times. The fluorescence intensity was measured for excitation at 485 nm and emission at 535 nm using multimode plate reader (PerkinElmer). The IC50 values were calculated using graphpad Prism 7. Experiments were performed at least three times.
# CXCR4 [3] = biological target: T1, CXCR4; test: SDF-1α-induced calcium mobilization assay in SupT1 cells (Fluo-4); format: cell-based; set-up: host or cells: SupT1 cells; details: for inhibition at 10 µM: SUP-T1, at 10 μM, 50 nM SDF-1α, read-out: Inhibition of the calcium signal
# Description: as §1
# SupT1 cells were collected and washed using HHBS buffer (Hanks’ Balanced Salt solution supplemented with 20 mM HEPES) and incubated with 1 mM probenecid (Energy Chemical, China) and 4 μM Fluo-4 (AAT bioquest, U.S.A.) for 37°C for 30 min with vortex every 5 min. After being washed with HHBS, cells were suspended in PBS at 2 × 10^6/ml and seeded 200 μl cells and various concentrations of compounds per well in 96-well plate. Following 50 nM SDF-1α was added to each well, the fluorescence intensity was measured (Ex/Em = 496/516 nm) using EnSpire® multimode plate reader (PerkinElmer, U.S.A.).
# CXCR4 mutants = test: Mutational analysis of HM70116 binding to CXCR4 mutants compared with DV3; details: mutants F87A, W94A, Y116A, T117A, D171A, W195A, Y255A, D262N, H281A; three independent experiments with duplicate values
# Description: Figure 10 The mutational analysis and molecular modeling of HM70116 interaction with CXCR4 (A) Mutational analysis of HM70116 interaction with CXCR4 binding pocket. The data was averaged from three independent experiments with duplicate values. The data were shown as mean ± standard error of the mean (S.E.M.). (B) MD simulation of HM70116-CXCR4 complex. (C) Binding mode of the N-terminus of vMIP-II in the CXCR4-binding pocket.
# as §2
# CXCR4 [4] = biological target: T1, CXCR4; test: CXCR4-mediated internalization assay, CHO cells expressing CXCR4-EGFP (confocal); format: cell-based; set-up: expressed in transfected cells; details: at 100 and 10 μM; SDF-1α-induced
# Description: Figure 3 The inhibitory effect of the antagonists on CXCR4 internalization CHO cells expressed CXCR4-EGFP conjugates were seeded in 96-well plate with glass bottom. Untreated cells were used as a control. Cells were pre-treated with or without CXCR4 antagonists and internalized with 50 nM SDF-1α (scale bar: 5 μm). The concentrations of the antagonists used were the same as those for the calcium mobilization assay shown above. The data shown were representative of three independent experiments.
# CXCR4 and EGFP were amplified using a primer shown in Supplementary Table S1. The pcDNA3 vector was digested by restriction-enzyme EcoR1 and Apa1. CXCR4 was digested by restriction-enzyme EcoR1 and Xba1. EGFP was digested by restriction-enzyme Xba1 and Apa1. CXCR4–EGFP conjugate was constructed by ligation of three DNA fragments using T4 ligase. The vector containing CXCR4 ligated EGFP at the C-terminus was transfected and expressed in CHO cells in 100 μl DMEM medium supplemented with 2% FBS at 1 × 10^5/ml which was seeded in 96-well black plate glass bottom and incubated at 37°C overnight. Following incubation with tested compounds for 10 min, 50 nM of SDF-1α was added to each well and the internalized CXCR4 was observed using a confocal microscopy (Zeiss LSM880).
# CXCR4 [5] = details: read-out: Competitive binding IC50; cited from earlier work
# Description: (§3) To understand the receptor–ligand recognition mechanism involving CXCR4 and its antagonists, here in this study we conducted a series of comparative analyses of the biological activities and CXCR4 binding sites of eleven known CXCR4 antagonists, including the three mentioned above, using cell-based bioassays, CXCR4 site-directed mutagenesis and computer-aided molecular modeling. These antagonists studied here were chosen from different representative structural types including both D-peptides (i.e., HC4319, DV1, DV1 dimer, and DV3) and a representative counterpart L-peptide (i.e., V1) derived ...
# X4-tropic HIV = details: read-out: IC50, block of X4-tropic HIV infection via CXCR4; cited from earlier work
# Description: as §3
# [6] = CXCR4 transfected CHO cells, 250 ng/ml 12G5, 40 min on ice, FITC second antibody, mean ± S.E.M. of at least three independent experiments, SEM, read-out: IC50 (nM), inhibition of 12G5 binding to CXCR4
# T1 sequence (P61073 whole entry): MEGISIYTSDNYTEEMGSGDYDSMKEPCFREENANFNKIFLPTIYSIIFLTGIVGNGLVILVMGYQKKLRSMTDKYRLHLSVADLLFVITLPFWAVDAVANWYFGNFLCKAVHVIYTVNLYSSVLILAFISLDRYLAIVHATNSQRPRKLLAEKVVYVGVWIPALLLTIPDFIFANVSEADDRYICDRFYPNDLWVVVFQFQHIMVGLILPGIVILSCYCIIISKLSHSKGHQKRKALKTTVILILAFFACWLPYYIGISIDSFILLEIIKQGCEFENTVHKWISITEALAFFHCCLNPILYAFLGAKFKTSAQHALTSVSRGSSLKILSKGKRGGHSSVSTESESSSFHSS
compound,measurement,setting,value
N=C(N)NCCC[C@H](NC(=O)[C@@H]1CSSC[C@H](NC(=O)[C@H](Cc2ccc3ccccc3c2)NC(=O)[C@H](CCCNC(=N)N)NC(=O)[C@@H](N)CCCNC(=N)N)C(=O)N[C@@H](Cc2ccc(O)cc2)C(=O)N[C@@H](CCC(N)=O)C(=O)N[C@@H](CCCCN)C(=O)N2CCC[C@@H]2C(=O)N2CCC[C@H]2C(=O)N[C@@H](Cc2ccc(O)cc2)C(=O)N[C@@H](CCCNC(=N)N)C(=O)N[C@@H](CCCNC(N)=O)C(=O)N1)C(=O)NCC(=O)N1CCC[C@@H]1C(=O)O [CVX15] (H-RR[2Nal]CYQK[dP]PYR[Cit]CRG[dP]-OH; disulfide 4-13),inhibition at 0.02 µM,"CXCR4 [1]; SUP-T1, at 20 nM",65%
same,IC50,CXCR4 [2]; [6],7.8 ± 2.2 nM
CC(C)C[C@@H](N)C(=O)NCC(=O)N[C@H](C)C(=O)N[C@H](CO)C(=O)N[C@H](Cc1c[nH]c2ccccc12)C(=O)N[C@H](Cc1c[nH]cn1)C(=O)N[C@H](CCCNC(=N)N)C(=O)N1CCC[C@@H]1C(=O)N[C@H](CC(=O)O)C(=O)N[C@H](CCCCN)C(=O)N[C@H](CS)C(=O)N[C@H](CS)C(=O)N[C@H](CC(C)C)C(=O)NCC(=O)N[C@H](Cc1ccc(O)cc1)C(=O)N[C@H](CCC(N)=O)C(=O)N[C@H](CCCCN)C(=O)N[C@H](CCCNC(=N)N)C(=O)N1CCC[C@@H]1C(=O)N[C@H](CC(C)C)C(=O)N1CCC[C@@H]1C(N)=O [DV1] (H-[dL]G[dA][dS][dW][dH][dR][dP][dD][dK][dC][dC][dL]G[dY][dQ][dK][dR][dP][dL][dP]-NH2),inhibition at 40 µM,CXCR4 [1],78%
same,inhibition at 10 µM,CXCR4 [3],86%
CC(C)C[C@@H](N)C(=O)NCC(=O)N[C@H](C)C(=O)N[C@H](CO)C(=O)N[C@H](Cc1c[nH]c2ccccc12)C(=O)N[C@H](Cc1c[nH]cn1)C(=O)N[C@H](CCCNC(=N)N)C(=O)N1CCC[C@@H]1C(=O)N[C@H](CC(=O)O)C(=O)N[C@H](CCCCN)C(=O)O [DV3] (H-[dL]G[dA][dS][dW][dH][dR][dP][dD][dK]-OH),inhibition at 40 µM,CXCR4 [1],13%
same,inhibition at 10 µM,CXCR4 [3],~55%
CC(C)C[C@@H](N)C(=O)NCC(=O)N[C@H](C)C(=O)N[C@H](CO)C(=O)N[C@H](Cc1c[nH]c2ccccc12)C(=O)N[C@H](Cc1c[nH]cn1)C(=O)N[C@H](CCCNC(=N)N)C(=O)N1CCC[C@@H]1C(=O)N[C@H](CC(=O)O)C(=O)N[C@H](CCCCN)C(=O)N[C@H](CCCNC(=N)N)C(=O)N[C@H](CCCNC(=N)N)C(=O)O [HM12] (H-[dL]G[dA][dS][dW][dH][dR][dP][dD][dK][dR][dR]-OH),IC50,CXCR4 [2]; SEM,544 ± 75 nM
CC(C)C[C@@H](NC(=O)[C@@H](CCCNC(=N)N)NC(=O)[C@H](N)CCCCN)C(=O)NCC(=O)N[C@H](C)C(=O)N[C@H](CO)C(=O)N[C@H](Cc1c[nH]c2ccccc12)C(=O)N[C@H](Cc1c[nH]cn1)C(=O)N[C@H](CCCNC(=N)N)C(=O)N1CCC[C@@H]1C(=O)N[C@H](CC(=O)O)C(=O)N[C@H](CCCCN)C(=O)O [HM60303] (H-[dK][dR][dL]G[dA][dS][dW][dH][dR][dP][dD][dK]-OH; N-terminus and C-terminus assumed),IC50,CXCR4 [2],> 50000 nM
CC(C)C[C@@H](N)C(=O)NCC(=O)N[C@H](C)C(=O)N[C@H](CO)C(=O)N[C@H](Cc1c[nH]c2ccccc12)C(=O)N[C@H](Cc1c[nH]cn1)C(=O)N[C@H](CCCNC(=N)N)C(=O)N1CCC[C@@H]1C(=O)N[C@H](CC(=O)O)C(=O)N[C@H](CCCCN)C(=O)N[C@H](CCCNC(=N)N)C(=O)O [HM60323] (H-[dL]G[dA][dS][dW][dH][dR][dP][dD][dK][dR]-OH),IC50,CXCR4 [2]; SEM,707 ± 143 nM
CC(C)C[C@@H](N)C(=O)NCC(=O)N[C@H](C)C(=O)N[C@H](CO)C(=O)N[C@H](Cc1c[nH]c2ccccc12)C(=O)N[C@H](Cc1c[nH]cn1)C(=O)N[C@H](CCCNC(=N)N)C(=O)N1CCC[C@@H]1C(=O)N[C@H](Cc1ccc2ccccc2c1)C(=O)N[C@H](CCCNC(=N)N)C(=O)N[C@H](CCCNC(=N)N)C(=O)O [HM70116] (H-[dL]G[dA][dS][dW][dH][dR][dP][d2Nal][dR][dR]-OH; N-terminus and C-terminus assumed),Reduction in binding to CXCR4 mutants relative to DV3 (in words),CXCR4 mutants,greater than DV3
same,Inhibition of intracellular calcium mobilization (in words),"CXCR4 [3]; 1 μM pretreatment, SDF-1α-induced",potently inhibited
same,Inhibition of CXCR4 internalization (in words),CXCR4 [4],effectively prevented CXCR4 internalization
CC1(C)CN2C(CSC(=NC3CCCCC3)NC3CCCCC3)=CSC2=N1 [IT1t],IC50,CXCR4 [5],[…]
same,IC50,X4-tropic HIV,7 nM
CC(C)C[C@H](NC(=O)[C@H](CS)NC(=O)[C@H](CS)NC(=O)[C@H](CCCCN)NC(=O)[C@H](CC(=O)O)NC(=O)[C@@H]1CCCN1C(=O)[C@H](CCCNC(=N)N)NC(=O)[C@H](Cc1c[nH]cn1)NC(=O)[C@H](Cc1c[nH]c2ccccc12)NC(=O)[C@H](CO)NC(=O)[C@H](C)NC(=O)CNC(=O)[C@@H](N)CC(C)C)C(=O)NCC(=O)N[C@@H](Cc1ccc(O)cc1)C(=O)N[C@@H](CCC(N)=O)C(=O)N[C@@H](CCCCN)C(=O)N[C@@H](CCCNC(=N)N)C(=O)N1CCC[C@H]1C(=O)N[C@@H](CC(C)C)C(=O)N1CCC[C@H]1C(=O)O [V1] (H-LGASWHRPDKCCLGYQKRPLP-OH),inhibition at 40 µM,CXCR4 [1],68%
same,IC50,CXCR4 [2]; [6],2630 ± 891 nM
